The Ki is the dissociation constant of the complex between target and ligand, obtained from inhibition or displacement. High values mean weaker binding, low ones tighter binding.

Chain of human FLAP (P20292 whole entry): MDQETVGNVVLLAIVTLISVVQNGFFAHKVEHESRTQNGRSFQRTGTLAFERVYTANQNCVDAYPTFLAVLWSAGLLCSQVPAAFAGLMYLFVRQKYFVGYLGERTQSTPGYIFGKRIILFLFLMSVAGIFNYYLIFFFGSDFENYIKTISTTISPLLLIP

This assay has as its target human FLAP (Homo sapiens (Human), UniProt P20292). The assay is described as follows: FLAP binding assay (HTRF format). To be noted: wild type FLAP, HTRF format. As for the experimental part: The ability of the compounds of the present invention to treat a FLAP-mediated disease and/or disorder, or associated symptoms or complications thereof, was determined using the following procedures. Binding assay data represent the average value obtained from two different assay plates, with samples run in duplicate on each plate. Human whole blood assay data represent a single replicate on an assay plate using whole blood from at least one healthy donor.
Data are expressed as a HTRF ratio.
Background: Time-resolved FRET reads energy transfer from a long-lived donor to a nearby acceptor.
`CNC(=O)c1ccccc1-c1ccc(-c2cnc(N)cn2)c(F)c1` [Example 510, 4′-(5-Aminopyrazin-2-yl)-3′-fluoro-N-methylbiphenyl-2-carboxamide] returned a Ki of 1940 nM. Regarding `C[C@@H](CO)NC(=O)c1ccccc1-c1ccc(-c2cnc(N)cn2)c(F)c1` [Example 513, 4′-(5-Aminopyrazin-2-yl)-3′-fluoro-N-[(1S)-2-hydroxy-1-methylethyl]biphenyl-2-carboxamide], the Ki was above 10000 nM. For `Nc1cnc(-c2ccc(-c3ccccc3C(=O)N3CCC(N)CC3)cc2F)cn1` [Example 515, 5-{2′-[(4-Aminopiperidin-1-yl)carbonyl]-3-fluorobiphenyl-4-yl}pyrazin-2-amine], the Ki is above 10000 nM. `Nc1ncc(-c2ccc(-c3ccccc3C(=O)N3CCS(=O)(=O)CC3)cc2F)cn1` [Example 516, 5-{2′-[(1,1-Dioxidothiomorpholin-4-yl)carbonyl]-3-fluorobiphenyl-4-yl}pyrimidin-2-amine] returned an inhibitory constant (Ki) above 10000 nM.

Regarding `C[C@@H](CO)NC(=O)c1ccccc1-c1ccc(-c2cnc(N)nc2)c(F)c1` [Example 517, 4′-(2-Aminopyrimidin-5-yl)-3′-fluoro-N-[(1S)-2-hydroxy-1-methylethyl]biphenyl-2-carboxamide], the Ki is above 10000 nM. The molecule `C[C@@H](NC(=O)c1ccccc1-c1ccc(-c2cnc(N)nc2)c(F)c1)C(F)(F)F` [Example 518, 4′-(2-Aminopyrimidin-5-yl)-3′-fluoro-N-[(1R)-2,2,2-trifluoro-1-methylethyl]biphenyl-2-carboxamide] gave a Ki above 10000 nM. `Nc1cnc(-c2ccc(-c3ccccc3C(=O)N3CCNC(=O)C3)cc2F)cn1` [Example 519, 4-{[4′-(5-Aminopyrazin-2-yl)-3′-fluorobiphenyl-2-yl]carbonyl}piperazin-2-one] returned an inhibitory constant (Ki) above 10000 nM.

The molecule `Nc1ncc(-c2ccc(-c3ccccc3C(=O)N3CCNC(=O)C3)cc2F)cn1` [Example 520, 4-{[4′-(2-Aminopyrimidin-5-yl)-3′-fluorobiphenyl-2-yl]carbonyl}piperazin-2-one] gave a Ki above 10000 nM. As to `Nc1ncc(-c2ccc(-c3ccccc3Oc3ncccn3)cn2)cn1` [Example 566, 5-{5-[2-(Pyrimidin-2-yloxy)phenyl]pyridin-2-yl}pyrimidin-2-amine], the Ki was above 10000 nM. Take `Nc1ncc(-c2ccc(-c3ccccc3Oc3ccnc(N)n3)cn2)cn1` [Example 567, 4-{2-[6-(2-Aminopyrimidin-5-yl)pyridin-3-yl]phenoxy}pyrimidin-2-amine]: the affinity corresponds to a Ki of 1140 nM. As to `Nc1ccnc(Oc2ccccc2-c2ccc(-c3cnc(N)nc3)nc2)n1` [Example 568, 5-(5-{2-[(4-Aminopyrimidin-2-yl)oxy]phenyl}pyridin-2-yl)pyrimidin-2-amine], the inhibition constant Ki turned out to be 2500 nM. For the molecule `CN(C)S(=O)(=O)c1ccccc1-c1ccc(-c2cnc(N)cn2)cc1` [Example 572, 4′-(5-Aminopyrazin-2-yl)-N,N-dimethylbiphenyl-2-sulfonamide], the Ki was found to be 370 nM. Molecule `Nc1cnc(-c2ccc(-c3ccccc3S(=O)(=O)N3CCOCC3)cc2)cn1` [Example 573, 5-[2′-(Morpholin-4-ylsulfonyl)biphenyl-4-yl]pyrazin-2-amine] had a Ki of 114 nM. With `CN(C)S(=O)(=O)c1ccccc1-c1ccc(-c2cnc(N)cn2)cc1F` [Example 575, 4′-(5-Aminopyrazin-2-yl)-2′-fluoro-N,N-dimethylbiphenyl-2-sulfonamide] the figure was 750 nM; with `CC(C)(C)NS(=O)(=O)c1ccccc1-c1ccc(-c2cn3cc(C(N)=O)ccc3n2)c(F)c1` [Example 582, 2-[2′-(tert-Butylsulfamoyl)-3-fluorobiphenyl-4-yl]imidazo[1,2-a]pyridine-6-carboxamide], above 10000 nM. The molecule `CC(C)(C)NS(=O)(=O)c1ccccc1-c1ccc(-c2cn3c(C#N)cccc3n2)c(F)c1` [Example 584, N-tert-Butyl-4′-(5-cyanoimidazo[1,2-a]pyridin-2-yl)-3′-fluorobiphenyl-2-sulfonamide] yielded an inhibition constant (Ki) above 10000 nM.

The molecule `CC(C)(C)NS(=O)(=O)c1ccccc1-c1ccc(-c2cn3cc(C#N)ccc3n2)c(F)c1` [Example 585, N-tert-Butyl-4′-(6-cyanoimidazo[1,2-a]pyridin-2-yl)-3′-fluorobiphenyl-2-sulfonamide] yielded a Ki above 10000 nM. Molecule `CC(C)(C)NS(=O)(=O)c1ccccc1-c1ccc(-c2cn3cc(C(F)(F)F)ccc3n2)c(F)c1` [Example 586, N-tert-Butyl-3′-fluoro-4′-[6-(trifluoromethyl)imidazo[1,2-a]pyridin-2-yl]biphenyl-2-sulfonamide] had a Ki above 10000 nM. `CCOC(=O)c1cccc2nc(-c3ccc(-c4ccccc4S(=O)(=O)NC(C)(C)C)cc3F)cn12` [Example 587, Ethyl 2-[2′-(tert-butylsulfamoyl)-3-fluorobiphenyl-4-yl]imidazo[1,2-a]pyridine-5-carboxylate] returned a Ki above 10000 nM. `CS(=O)(=O)c1ccccc1-c1ccc(-c2cnc(N)cn2)cc1` [Example 589, 5-[2′-(Methylsulfonyl)biphenyl-4-yl]pyrazin-2-amine] registered an inhibition constant Ki above 10000 nM.

Turning to `Cc1cc(-c2ccccc2S(C)(=O)=O)ccc1-c1cnc(N)cn1` [Example 590, 5-[3-Methyl-2′-(methylsulfonyl)biphenyl-4-yl]pyrazin-2-amine], the inhibition constant Ki was above 10000 nM.

With `Cc1cc(-c2ccccc2S(=O)(=O)N(C)C)ccc1-c1cnc(N)cn1` [Example 591, 4′-(5-Aminopyrazin-2-yl)-N,N,3′-trimethylbiphenyl-2-sulfonamide], the inhibitory constant (Ki) was around 2490 nM. Take `Nc1cnc(-c2ccc(-c3ccccc3S(N)(=O)=O)cc2O)cn1` [Example 592, 4′-(5-Aminopyrazin-2-yl)-3′-hydroxybiphenyl-2-sulfonamide]: the inhibition constant Ki was above 10000 nM.

In turn, `CS(=O)(=O)Nc1ccccc1-c1ccc(-c2cnc(N)cn2)cc1` [Example 593, N-[4′-(5-Aminopyrazin-2-yl)biphenyl-2-yl]methanesulfonamide] returned a Ki above 10000 nM. `Nc1cnc(-c2ccc(-c3ccccc3S(N)(=O)=O)cc2)cn1` [Example 594, 4′-(5-Aminopyrazin-2-yl)biphenyl-2-sulfonamide] came in with an inhibitory constant (Ki) above 10000 nM. The molecule `CC(C)(C)NS(=O)(=O)c1ccccc1-c1ccc(-c2ccc3c(c2)CC(=O)N3)c(F)c1` [Example 595, N-tert-Butyl-3′-fluoro-4′-(2-oxo-2,3-dihydro-1H-indol-5-yl)biphenyl-2-sulfonamide] registered an inhibitory constant (Ki) of around 2490 nM. Molecule `CC(C)(C)NS(=O)(=O)c1ccccc1-c1ccc(-c2ccc3[nH]c(=O)[nH]c(=O)c3c2)c(F)c1` [Example 596, N-tert-Butyl-4′-(2,4-dioxo-1,2,3,4-tetrahydroquinazolin-6-yl)-3′-fluorobiphenyl-2-sulfonamide] yielded a Ki above 10000 nM. With `CC(C)(C)NS(=O)(=O)c1ccccc1-c1ccc(-c2cnc(N)c(C(=O)O)n2)c(F)c1` [Example 598, 3-Amino-6-[2′-(tert-butylsulfamoyl)-3-fluorobiphenyl-4-yl]pyrazine-2-carboxylic acid] the figure was above 10000 nM; with `NC(=O)CS(=O)(=O)c1ccccc1-c1ccc(-c2cnc(N)nc2)c(F)c1` [Example 599, 2-{[4′-(2-Aminopyrimidin-5-yl)-3′-fluorobiphenyl-2-yl]sulfonyl}acetamide], above 10000 nM; with `CCN(CC)C(=O)CS(=O)(=O)c1ccccc1-c1ccc(-c2cnc(N)nc2)c(F)c1` [Example 600, 2-{[4′-(2-Aminopyrimidin-5-yl)-3′-fluorobiphenyl-2-yl]sulfonyl}-N,N-diethylacetamide], above 10000 nM. For `Nc1ncc(-c2ccc(-c3ccccc3S(=O)(=O)CC(=O)N3CCOCC3)cc2F)cn1` [Example 601, 5-{3-Fluoro-2′-[(2-morpholin-4-yl-2-oxoethyl)sulfonyl]biphenyl-4-yl}pyrimidin-2-amine] the value was above 10000 nM; for `Nc1cnc(-c2ccc(-c3ccccc3OCCO)cc2F)cn1` [Example 628, 2-{[4′-(5-Aminopyrazin-2-yl)-3′-fluorobiphenyl-2-yl]oxy}ethanol], 336 nM; for `Nc1ncc(-c2ccc(-c3ccccc3OCCO)cc2F)cn1` [Example 629, 2-{[4′-(2-Aminopyrimidin-5-yl)-3′-fluorobiphenyl-2-yl]oxy}ethanol], 836 nM. For `Nc1cnc(-c2ccc(-c3ccccc3OC3CCNCC3)cc2F)cn1` [Example 630, 5-[3-Fluoro-2′-(piperidin-4-yloxy)biphenyl-4-yl]pyrazin-2-amine], the inhibition constant (Ki) was 1900 nM.

For the molecule `Nc1ncc(-c2ccc(-c3ccccc3OC3CCNCC3)cc2F)cn1` [Example 631, 5-[3-Fluoro-2′-(piperidin-4-yloxy)biphenyl-4-yl]pyrimidin-2-amine], the inhibitory constant (Ki) was above 10000 nM.

For the molecule `NCCOc1ccccc1-c1ccc(-c2cnc(N)nc2)c(F)c1` [Example 641, 5-[2′-(2-Aminoethoxy)-3-fluorobiphenyl-4-yl]pyrimidin-2-amine], the Ki is above 10000 nM.

As to `Nc1ncc(-c2ccc(-c3ccccc3OCC(=O)O)cc2F)cn1` [Example 644, {[4′-(2-Aminopyrimidin-5-yl)-3′-fluorobiphenyl-2-yl]oxy}acetic acid], the Ki was above 10000 nM.

Regarding `Nc1ncc(-c2ccc(-c3cccnc3OCCO)cc2F)cn1` [Example 649, 2-({3-[4-(2-Aminopyrimidin-5-yl)-3-fluorophenyl]pyridin-2-yl}oxy)ethanol], the inhibition constant (Ki) was above 10000 nM. Regarding `Nc1cnc(-c2ccc(-c3cccnc3OCCO)cc2F)cn1` [Example 650, 2-({3-[4-(5-Aminopyrazin-2-yl)-3-fluorophenyl]pyridin-2-yl}oxy)ethanol], the affinity corresponds to a Ki of 832 nM. The molecule `C[C@H](CO)Oc1ncccc1-c1ccc(-c2cnc(N)nc2)c(F)c1` [Example 658, (2I)-2-({3-[4-(2-Aminopyrimidin-5-yl)-3-fluorophenyl]pyridin-2-yl}oxy)propan-1-ol] registered an inhibitory constant (Ki) of 572 nM.

The molecule `CS(=O)(=O)Nc1ccccc1-c1ccc(-c2ccc(N)nc2)c(F)c1` [Example 659, N-(4′-(6-Aminopyridin-3-yl)-3′-fluoro-[1,1′-biphenyl]-2-yl)methanesulfonamide] displayed a Ki of around 750 nM.

The record behind these values is patent US9079866B2, “Flap modulators” (JANSSEN PHARMACEUTICA NV, priority 2013, dated 2015).
